Source: PubChem BioAssay (NCI)
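The compound was tested at five concentrations on cells cultured in 96-well plates, with a 48-hour exposure period. TGI: total growth inhibition.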

Key:
Assay in all cases: DTP human tumour cell line panel, 48 h
SK-MEL-2 melanoma = test system: SK-MEL-2 melanoma
RXF 393 renal = test system: RXF 393 renal
SNB-19 CNS = test system: SNB-19 CNS
SK-OV-3 ovarian = test system: SK-OV-3 ovarian
KM20L2 colon = test system: KM20L2 colon
UO-31 renal = test system: UO-31 renal
M14 melanoma = test system: M14 melanoma
786-0 renal = test system: 786-0 renal
HOP-92 NSCLC = test system: HOP-92 NSCLC
HCT-116 colon = test system: HCT-116 colon
HOP-62 NSCLC = test system: HOP-62 NSCLC
XF 498 CNS = test system: XF 498 CNS
HL-60(TB) leukemia = test system: HL-60(TB) leukemia
UACC-62 melanoma = test system: UACC-62 melanoma
OVCAR-5 ovarian = test system: OVCAR-5 ovarian
COLO 205 colon = test system: COLO 205 colon
DLD-1 colon = test system: DLD-1 colon
ACHN renal = test system: ACHN renal
A498 renal = test system: A498 renal
NCI-H226 lung = test system: NCI-H226 lung
MALME-3M melanoma = test system: MALME-3M melanoma
DMS 114 small cell lung = test system: DMS 114 small cell lung
RPMI-8226 leukemia = test system: RPMI-8226 leukemia
OVCAR-3 ovarian = test system: OVCAR-3 ovarian
DMS 273 small cell lung = test system: DMS 273 small cell lung
TK-10 renal = test system: TK-10 renal
NCI-H460 lung = test system: NCI-H460 lung
SN12C renal = test system: SN12C renal
HOP-18 NSCLC = test system: HOP-18 NSCLC
NCI-H522 lung = test system: NCI-H522 lung
CCRF-CEM leukemia = test system: CCRF-CEM leukemia
SF-268 CNS = test system: SF-268 CNS
SNB-78 CNS = test system: SNB-78 CNS
LXFL 529 NSCLC = test system: LXFL 529 NSCLC
A549 NSCLC = test system: A549 NSCLC
EKVX NSCLC = test system: EKVX NSCLC
U251 CNS = test system: U251 CNS
HCT-15 colon = test system: HCT-15 colon
KM12 colon = test system: KM12 colon
LOX IMVI melanoma = test system: LOX IMVI melanoma
CAKI-1 renal = test system: CAKI-1 renal
OVCAR-4 ovarian = test system: OVCAR-4 ovarian
HT29 colon = test system: HT29 colon
MOLT-4 leukemia = test system: MOLT-4 leukemia
SNB-75 CNS = test system: SNB-75 CNS
SW-620 colon = test system: SW-620 colon
SK-MEL-28 melanoma = test system: SK-MEL-28 melanoma
SK-MEL-5 melanoma = test system: SK-MEL-5 melanoma
K-562 leukemia = test system: K-562 leukemia
UACC-257 melanoma = test system: UACC-257 melanoma
SR leukemia = test system: SR leukemia
OVCAR-8 ovarian = test system: OVCAR-8 ovarian
M19-MEL melanoma = test system: M19-MEL melanoma
NCI-H23 lung = test system: NCI-H23 lung
HCC-2998 colon = test system: HCC-2998 colon
SF-539 CNS = test system: SF-539 CNS
IGROV1 ovarian = test system: IGROV1 ovarian
SF-295 CNS = test system: SF-295 CNS

## NC(CCC(=O)Nc1ccc(O)cc1)C(=O)O (centres undefined)
SK-MEL-2 melanoma
  TGI: > 100 µM
RXF 393 renal
  TGI: > 100 µM
SNB-19 CNS
  TGI: > 100 µM
SK-OV-3 ovarian
  TGI: > 100 µM
KM20L2 colon
  TGI: > 100 µM
UO-31 renal
  TGI: > 100 µM
M14 melanoma
  TGI: > 100 µM
786-0 renal
  TGI: > 100 µM
HOP-92 NSCLC
  TGI: > 100 µM
HCT-116 colon
  TGI: > 100 µM
HOP-62 NSCLC
  TGI: > 100 µM
XF 498 CNS
  TGI: > 100 µM
HL-60(TB) leukemia
  TGI: > 100 µM
UACC-62 melanoma
  TGI: > 100 µM
OVCAR-5 ovarian
  TGI: > 100 µM
COLO 205 colon
  TGI: > 100 µM
DLD-1 colon
  TGI: > 100 µM
ACHN renal
  TGI: > 100 µM
A498 renal
  TGI: > 100 µM
NCI-H226 lung
  TGI: > 100 µM
MALME-3M melanoma
  TGI: > 100 µM
DMS 114 small cell lung
  TGI: > 100 µM
RPMI-8226 leukemia
  TGI: > 100 µM
OVCAR-3 ovarian
  TGI: > 100 µM
DMS 273 small cell lung
  TGI: > 100 µM
TK-10 renal
  TGI: > 100 µM
NCI-H460 lung
  TGI: > 100 µM
SN12C renal
  TGI: > 100 µM
HOP-18 NSCLC
  TGI: > 100 µM
NCI-H522 lung
  TGI: > 100 µM
CCRF-CEM leukemia
  TGI: > 100 µM
SF-268 CNS
  TGI: > 100 µM
SNB-78 CNS
  TGI: > 100 µM
LXFL 529 NSCLC
  TGI: > 100 µM
A549 NSCLC
  TGI: > 100 µM
EKVX NSCLC
  TGI: > 100 µM
U251 CNS
  TGI: > 100 µM
HCT-15 colon
  TGI: > 100 µM
KM12 colon
  TGI: > 100 µM
LOX IMVI melanoma
  TGI: > 100 µM
CAKI-1 renal
  TGI: > 100 µM
OVCAR-4 ovarian
  TGI: > 100 µM
HT29 colon
  TGI: > 100 µM
MOLT-4 leukemia
  TGI: > 100 µM
SNB-75 CNS
  TGI: > 100 µM
SW-620 colon
  TGI: > 100 µM
SK-MEL-28 melanoma
  TGI: > 100 µM
SK-MEL-5 melanoma
  TGI: > 100 µM
K-562 leukemia
  TGI: > 100 µM
UACC-257 melanoma
  TGI: > 100 µM
SR leukemia
  TGI: > 100 µM
OVCAR-8 ovarian
  TGI: > 100 µM

## O=C(CC(=O)n1nc(-c2ccccc2)c(N=Nc2ccccc2Cl)c1-c1ccccc1)Nc1ccc(Cl)cc1
M19-MEL melanoma
  TGI: 45.7 µM
SK-MEL-2 melanoma
  TGI: > 100 µM
RXF 393 renal
  TGI: > 100 µM
SNB-19 CNS
  TGI: > 100 µM
SK-OV-3 ovarian
  TGI: > 100 µM
KM20L2 colon
  TGI: > 100 µM
UO-31 renal
  TGI: > 100 µM
M14 melanoma
  TGI: > 100 µM
786-0 renal
  TGI: > 83.4 µM
NCI-H23 lung
  TGI: > 100 µM
HCC-2998 colon
  TGI: > 100 µM
HOP-92 NSCLC
  TGI: > 100 µM
HCT-116 colon
  TGI: > 55.8 µM
HOP-62 NSCLC
  TGI: > 100 µM
XF 498 CNS
  TGI: > 100 µM
HL-60(TB) leukemia
  TGI: > 60.5 µM
UACC-62 melanoma
  TGI: > 100 µM
OVCAR-5 ovarian
  TGI: > 100 µM
COLO 205 colon
  TGI: > 64 µM
DLD-1 colon
  TGI: > 65.2 µM
SF-539 CNS
  TGI: > 100 µM
ACHN renal
  TGI: > 100 µM
A498 renal
  TGI: > 100 µM
NCI-H226 lung
  TGI: > 100 µM
MALME-3M melanoma
  TGI: > 100 µM
DMS 114 small cell lung
  TGI: > 56.6 µM
RPMI-8226 leukemia
  TGI: > 66.1 µM
OVCAR-3 ovarian
  TGI: > 100 µM
DMS 273 small cell lung
  TGI: > 100 µM
TK-10 renal
  TGI: > 100 µM
NCI-H460 lung
  TGI: > 78.2 µM
SN12C renal
  TGI: > 100 µM
HOP-18 NSCLC
  TGI: > 100 µM
NCI-H522 lung
  TGI: > 100 µM
CCRF-CEM leukemia
  TGI: > 68.5 µM
SF-268 CNS
  TGI: > 100 µM
LXFL 529 NSCLC
  TGI: > 100 µM
A549 NSCLC
  TGI: > 79.8 µM
EKVX NSCLC
  TGI: > 100 µM
U251 CNS
  TGI: > 55.6 µM
HCT-15 colon
  TGI: > 59.9 µM
KM12 colon
  TGI: > 100 µM
LOX IMVI melanoma
  TGI: > 59.7 µM
CAKI-1 renal
  TGI: > 100 µM
OVCAR-4 ovarian
  TGI: > 100 µM
HT29 colon
  TGI: > 89.5 µM
MOLT-4 leukemia
  TGI: > 100 µM
SNB-75 CNS
  TGI: > 100 µM
IGROV1 ovarian
  TGI: > 100 µM
SW-620 colon
  TGI: > 74 µM
SF-295 CNS
  TGI: > 100 µM
SK-MEL-28 melanoma
  TGI: > 100 µM
SK-MEL-5 melanoma
  TGI: > 100 µM
K-562 leukemia
  TGI: > 85.8 µM
UACC-257 melanoma
  TGI: > 100 µM
SR leukemia
  TGI: > 100 µM
OVCAR-8 ovarian
  TGI: > 100 µM
